# Test results as given in patent publication US8404694B2, “Aurora kinase modulators and method of use” (Amgen Inc., priority 2008, dated 2013).
# Key:
# AuroraB = target: T1, AuroraB (Homo sapiens, UniProt Q96GD4); test: AuroraB Homogeneous Time Resolved Fluorescent (HTRF) kinase assay; type: biochemical; conditions: ATP 23 μM, biotinylated Histone H3 peptide, read-out: AurB_IC50—IP (Avg)
# T1 construct: 20 μL of AuroraB FL His; His
# Protocol: AuroraB-Homogeneous Time Resolved Fluorescent (HTRF) Kinase Assay:
# The AuroraB HTRF assay begins with AuroraB in the presence of ATP phosphorylating the biotinylated peptide Histone H3. The reaction incubates for about 90 min. the reaction is quenched by addition of detection reagents, which stop the reaction by diluting out the enzyme and chelating the metals due to the presence of EDTA. After addition, the assay is incubated for about 60 min to allow detection reagents to equilibrate.
# The AuroraB HTRF assay comprises 1 μL of compound in 100% DMSO, 20 μL of ATP and biotinylated Histone H3, and 20 μL of AuroraB FL His for a final volume of 41 μL. The final concentration of Histone H3 is 0.1 μM. The final concentration of ATP is 23 μM (Km(app)=23 μM+/−2.6) and the final concentration of AuroraB is 400 pM. Buffer conditions are as follows: 50 mM HEPES pH 7.5, 5 mM NaCl, 0.5 mM MgCl, 0.5 mM MnCl, 2 mM DTT, 0.05% BSA.
# (§1) The assay is quenched and stopped with 160 μL of detection reagent. Detection reagents are as follows: Buffer made of 50 mM Tris, pH 7.5, 100 mM NaCl, 3 mM EDTA, 0.05% BSA, 0.1% Tween20. Added to this buffer prior to reading is Steptavidin allophycocyanin (SA-APC) at a final conc in the assay of 0.001 mg/mL, and europilated anti-phosphoHistoneH3 Ab (Eu-anti-His H3) at a final conc of 0.064 nM.
# (§2) The assay plate is read in either a Discovery or a RubyStar. The eu-anti-His H3 is excited at 320 nm and emits at 615 nm to excite the SA-APC which in turn emits at 655 nm. The ratio of SA-APC at 655 nm (excited due to close proximity to the Eu-anti-His H3 because of phosphorylation of the peptide) to free Eu-anti-His H3 at 615 nm will give substrate phosphorylation.
# (§3) Many of the Examples described herein were tested, and found to be active compounds. Table I includes related biological data, which may be interpreted using the activity gauge below: […]
# AuroraA-TPX2 = target: T2, AuroraA-TPX2 (Homo sapiens, UniProt O14965); test: AuroraA-TPX2 Homogeneous Time Resolved Fluorescent (HTRF) kinase assay; type: biochemical; conditions: ATP about 1 μM, biotinylated PLK peptide, read-out: AurA_IC50—IP (Avg)
# T2 construct: 20 μL of AuroraA-TPX2 KD GST; GST
# T2 sequence (O14965 133-383 limits assumed): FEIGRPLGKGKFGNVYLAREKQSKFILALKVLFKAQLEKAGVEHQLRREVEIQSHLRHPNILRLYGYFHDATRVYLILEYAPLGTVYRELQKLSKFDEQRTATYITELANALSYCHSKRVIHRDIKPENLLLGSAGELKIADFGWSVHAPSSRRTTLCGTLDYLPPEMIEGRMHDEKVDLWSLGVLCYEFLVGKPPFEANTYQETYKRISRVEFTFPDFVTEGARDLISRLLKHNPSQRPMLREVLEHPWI
# T2 sequence (Q9ULW0 1-747 partner): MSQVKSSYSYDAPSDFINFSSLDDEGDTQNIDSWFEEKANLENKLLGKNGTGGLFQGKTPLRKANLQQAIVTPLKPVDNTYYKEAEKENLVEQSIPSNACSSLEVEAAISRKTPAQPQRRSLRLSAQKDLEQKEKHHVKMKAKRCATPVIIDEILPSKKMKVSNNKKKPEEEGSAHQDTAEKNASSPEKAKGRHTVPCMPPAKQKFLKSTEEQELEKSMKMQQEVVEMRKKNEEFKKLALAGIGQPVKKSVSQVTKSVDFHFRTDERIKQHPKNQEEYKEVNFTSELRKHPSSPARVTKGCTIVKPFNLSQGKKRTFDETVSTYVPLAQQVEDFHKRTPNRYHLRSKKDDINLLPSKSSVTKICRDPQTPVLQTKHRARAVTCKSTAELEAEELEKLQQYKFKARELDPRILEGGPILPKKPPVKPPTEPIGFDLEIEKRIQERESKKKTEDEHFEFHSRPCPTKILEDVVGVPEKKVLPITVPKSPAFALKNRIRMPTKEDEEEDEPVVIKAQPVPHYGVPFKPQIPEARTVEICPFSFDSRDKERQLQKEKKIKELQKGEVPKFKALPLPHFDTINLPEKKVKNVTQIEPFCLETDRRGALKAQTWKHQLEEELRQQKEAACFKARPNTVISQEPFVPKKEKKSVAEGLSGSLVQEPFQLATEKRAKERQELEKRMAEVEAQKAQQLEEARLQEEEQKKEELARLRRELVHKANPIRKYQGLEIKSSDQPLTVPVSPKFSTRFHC
# Protocol: AuroraA-TPX2-Homogeneous Time Resolved Fluorescent (HTRF) Kinase Assay:
# The Aurora-A HTRF assay begins with Aurora-A in the presence of ATP phosphorylating the biotinylated peptide PLK. The reaction incubates for about 120 min. Detection reagents are added to quench the reaction. These agents stop the reaction by diluting out the enzyme and chelating the metals due to the presence of EDTA. After addition, the assay is incubated overnight to allow the detection reagents to equilibrate.
# The AuroraA HTRF assay comprises 1 μL of compound in 100% DMSO, 20 μL of ATP and biotinylated PLK, and 20 μL of AuroraA-TPX2 KD GST for a final volume of about 41 μL. The final concentration of PLK is about 1 μM. The final concentration of ATP is about 1 μM (Km(app)=1 μM+/−0.1) and the final concentration of AuroraA is about 5 nM. Buffer conditions are as follows: 60 mM HEPES pH 7.5, 25 mM NaCl, 10 mM MgCl, 2 mM DTT, 0.05% BSA.
# as §1, with “0.0005” for “0.001”, “anti-phosphoPLK” for “anti-phosphoHistoneH3”, “(Eu-anti-PLK)” for “(Eu-anti-His H3)”, “0.02” for “0.064”
# as §2, with “eu-anti-PLK” for “eu-anti-His H3”, “Eu-anti-PLK” for “Eu-anti-His H3”
# as §3
# HeLa cells = test: HeLa cell 24 hr ploidy assay; type: cell-based; conditions: Homo sapiens, 24 hrs treatment, DNA content (ploidy), read-out: 24 h_4N Ploidy EC50—IP (Avg)
# Protocol: HeLa Cell 24 hr Ploidy Assay Protocol
# The purpose of this assay is to evaluate the ability of selected individual compounds to induce Deoxyribonucleic acid (DNA) content (ploidy) in cells thought failed cell division. Cell cycle analysis is a rapid and efficient way to evaluate the status of DNA content (ploidy) of a given cell. HeLa cells (1×10^4 HeLa cells/well) in 100 ul of media (MEM+10% FBS) were plated in 96-well plates (Packard View) and cultured for 24 hrs at 37° C. maintained in a 5% CO2 atmosphere. The following day, cells were treated for 24 hrs with inhibitor compounds (10 pt. Dose ranging from 0.0024-1.25 umol/L). The compounds were serially diluted in DMSO (0.25% final concentration). The cells were fixed (3.7% Formaldehyde and 1% glutaraldehyde) and permeabilized (1×PBS with 1% BSA and 0.2% Triton X-100) in preparation for nuclear staining. The well plates were stained for 45 minutes at RT in the dark using Hoechest 33342 nuclear stain at 0.5 ug·ml (Stock of 10 mg/ml, Invitrogen, CA, Cat # H3570). The nuclear stain was removed by aspiration and the cells were washed with wash buffer. A Cellomics Array Scan Vti plate reader was used to acquire the DNA ploidy data of the cells using Cell Cycle bioapplication. Numbers for each of “valid cell count/well”, “% of 4N cells” and “% of >4Ncells” were calculated with the assistance of an Activity Base 5.1ca software and dose curves were generated using an XLFit software. With XLFit, final EC50 IP and EC50 transit values, as well as the Max and Min, were calculated for each curve. Many of the Examples described herein were tested, and fund to be active compounds. Table I includes related biological data in the 24 h cell-ploidy content assay, which may be interpreted using the activity gauge below: […]
# T1 sequence (Q96GD4 whole entry): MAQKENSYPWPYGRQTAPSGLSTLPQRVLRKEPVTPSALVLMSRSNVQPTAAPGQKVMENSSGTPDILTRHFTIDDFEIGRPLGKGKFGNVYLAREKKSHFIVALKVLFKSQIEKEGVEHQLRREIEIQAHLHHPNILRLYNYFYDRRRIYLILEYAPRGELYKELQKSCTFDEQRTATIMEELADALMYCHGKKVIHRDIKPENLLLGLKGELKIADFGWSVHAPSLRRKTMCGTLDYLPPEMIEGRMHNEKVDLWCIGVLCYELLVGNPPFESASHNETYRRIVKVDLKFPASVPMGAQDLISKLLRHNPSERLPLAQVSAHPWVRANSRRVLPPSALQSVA
Compound,IC50 (AuroraB) [nM],IC50 (AuroraA-TPX2) [nM],EC50 (HeLa cells) [nM]
"Clc1ccc(-c2nnc(Nc3ccc(Sc4ccnc5cc(C6CC6)nn45)cc3)c3ccccc23)cc1 [Example 1, 4-(4-Chlorophenyl)-N-(4-(2-cyclopropylpyrazolo[1,5-a]pyrimidin-7-ylthio)phenyl)phthalazin-1-amine]",< 100,> 2500,< 100
"Clc1ccc(-c2nnc(Nc3ccc(Oc4ccnn5cccc45)cc3)c3ccccc23)cc1 [Example 2, 4-(4-Chlorophenyl)-N-(4-(pyrrolo[1,2-b]pyridazin-4-yloxy)phenyl)-1-phthalazinamine]",< 100,100 to 500,100 to 500
"Clc1ccc(-c2nnc(Nc3ccc(Oc4ncnn5cccc45)cc3)c3ccccc23)cc1 [Example 3, 4-(4-Chlorophenyl)-N-(4-(pyrrolo[2,1-f][1,2,4]triazin-4-yloxy)phenyl)-1-phthalazinamine]",< 100,500 to 2500,500 to 2500
"C=CCOc1cc2nccc(Sc3ccc(Nc4nnc(-c5ccc(Cl)cc5)c5ccccc45)cc3)n2n1 [Example 4, N-(4-(2-(allyloxy)pyrazolo[1,5-a]pyrimidin-7-ylthio)phenyl)-4-(4-chlorophenyl)phthalazin-1-amine]",–,–,100 to 500
"Oc1cc2nccc(Sc3ccc(Nc4nnc(-c5ccc(Cl)cc5)c5ccccc45)cc3)n2n1 [Example 5, 7-(4-(4-(4-Chlorophenyl)phthalazin-1-ylamino)phenylthio)pyrazolo[1,5-a]pyrimidin-2-ol]",< 100,< 100,100 to 500
"COCCOc1cc2nccc(Sc3ccc(Nc4nnc(-c5ccc(Cl)cc5)c5ccccc45)cc3)n2n1 [Example 6, 4-(4-Chlorophenyl)-N-(4-(2-(2-methoxyethoxy)pyrazolo[1,5-a]pyrimidin-7-ylthio)phenyl)phthalazin-1-amine]",< 100,< 100,< 100
"Clc1ccc(-c2nnc(Nc3ccc(Sc4ncnn5ccc(Cl)c45)cc3)c3ccccc23)cc1 [Example 7, 4-(4-Chlorophenyl)-N-(4-(5-chloropyrrolo[1,2-f][1,2,4]triazin-4-ylthio)phenyl)phthalazin-1-amine]",< 100,> 2500,100 to 500
"Clc1ccc(-c2nnc(Nc3ccc(Sc4ccnc5ccnn45)cc3)c3ccccc23)nc1 [Example 20, 4-(5-chloro-2-pyridinyl)-N-(4-(pyrazolo[1,5-a]pyrimidin-7-ylthio)phenyl)-1-phthalazinamine]",< 100,< 100,< 100
"Cc1ccc(-c2nnc(Nc3ccc(Sc4ccnc5ccnn45)cc3)c3ccccc23)nc1 [Example 21, 4-(5-methyl-2-pyridinyl)-N-(4-(pyrazolo[1,5-a]pyrimidin-7-ylthio)phenyl)-1-phthalazinamine]",< 100,< 100,< 100
"c1ccc(-c2nnc(Nc3ccc(Sc4ccnc5cc(C6CC6)nn45)cc3)c3ccccc23)cc1 [Example 22, N-(4-((2-cyclopropylpyrazolo[1,5-a]pyrimidin-7-yl)thio)phenyl)-4-phenyl-1-phthalazinamine]",< 100,100 to 500,< 100
"Cc1csc(-c2nnc(Nc3ccc(Sc4ccnc5cc(C6CC6)nn45)cc3)c3ccccc23)c1 [Example 23, N-(4-((2-cyclopropylpyrazolo[1,5-a]pyrimidin-7-yl)thio)phenyl)-4-(4-methyl-2-thienyl)-1-phthalazinamine]",100 to 500,< 100,< 100
"Cc1csc(-c2nnc(Nc3ccc(Oc4ncnn5cccc45)cc3)c3ccccc23)c1 [Example 24, 4-(4-methyl-2-thienyl)-N-(4-(pyrrolo[2,1-f][1,2,4]triazin-4-yloxy)phenyl)-1-phthalazinamine]",< 100,100 to 500,100 to 500
"Clc1ccc(-c2nnc(Nc3ccc(Sc4ncnn5cccc45)cc3)c3ccccc23)cc1 [Example 25, 4-(4-chlorophenyl)-N-(4-(pyrrolo[2,1-f][1,2,4]triazin-4-ylthio)phenyl)-1-phthalazinamine]",< 100,> 2500,100 to 500
